From patent US20220242870A1, “HETEROCYCLE-FUSED PYRIMIDINE DERIVATIVE AND USE THEREOF” (VORONOI Inc., priority 2019, published 2022)

Legend:
human FLT3-ITD enzyme = molecular target: T1, human FLT3-ITD enzyme (Homo sapiens, UniProt P36888); experiment: FLT3 enzyme inhibitory ability (ADP-Glo kinase assay); type: biochemical; conditions: human FLT3-ITD enzyme 10 ng, ATP 10 μM, 25° C. 1 hour
T1 sequence (P36888 1-993): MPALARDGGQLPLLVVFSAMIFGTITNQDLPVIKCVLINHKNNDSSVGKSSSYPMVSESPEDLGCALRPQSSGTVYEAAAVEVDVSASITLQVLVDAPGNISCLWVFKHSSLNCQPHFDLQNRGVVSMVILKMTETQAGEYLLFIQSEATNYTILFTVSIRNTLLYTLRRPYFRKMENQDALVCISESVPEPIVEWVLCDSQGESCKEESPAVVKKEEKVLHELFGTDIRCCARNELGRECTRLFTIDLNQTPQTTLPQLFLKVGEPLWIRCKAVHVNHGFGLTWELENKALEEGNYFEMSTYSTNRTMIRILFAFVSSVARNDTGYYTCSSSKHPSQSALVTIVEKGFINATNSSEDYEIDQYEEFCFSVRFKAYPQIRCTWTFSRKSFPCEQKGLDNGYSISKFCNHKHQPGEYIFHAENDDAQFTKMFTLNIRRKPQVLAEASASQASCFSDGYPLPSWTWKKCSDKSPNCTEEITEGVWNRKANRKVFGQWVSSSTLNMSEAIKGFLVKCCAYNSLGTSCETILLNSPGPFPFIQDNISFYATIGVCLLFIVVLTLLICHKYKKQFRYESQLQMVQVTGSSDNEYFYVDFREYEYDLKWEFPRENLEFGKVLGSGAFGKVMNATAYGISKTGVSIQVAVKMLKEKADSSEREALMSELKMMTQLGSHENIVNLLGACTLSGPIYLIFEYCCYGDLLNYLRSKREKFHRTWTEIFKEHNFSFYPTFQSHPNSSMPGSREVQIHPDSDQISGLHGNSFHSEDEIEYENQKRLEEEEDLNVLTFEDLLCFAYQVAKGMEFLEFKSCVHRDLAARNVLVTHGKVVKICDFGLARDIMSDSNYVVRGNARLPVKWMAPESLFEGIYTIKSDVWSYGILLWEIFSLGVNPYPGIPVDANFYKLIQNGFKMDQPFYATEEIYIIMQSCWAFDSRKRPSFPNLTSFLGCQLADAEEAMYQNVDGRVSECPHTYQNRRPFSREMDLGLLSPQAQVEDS
Description: The inhibitory activities of the example compounds according to the present invention to the FLT3-ITD enzyme were evaluated. Specifically, the compound of the present invention was reacted with a purified human FLT3-ITD enzyme (Signalchem). A composition of 40 mM Tris-HCl pH 7.4, 20 mM MgCl2, 0.5 mg/mL BSA and 50 μM DTT was used as a reaction buffer, and reactions of all test matters were performed on the reaction buffer. Upon the test, human FLT3-ITD enzyme (10 ng), purified ATP (10 μM) and a specific substrate solution were reacted at 25° C. for 1 hour, and then the enzyme activity was identified using an in vitro ADP-Glo™ kinase assay (Promega). The enzyme activity reaction solution, the ADP-Glo reaction solution and the enzyme ability detection solution were reacted in a ratio of 2:2:1, and the activity inhibition degree of the enzyme was measured as luminescence. Using the solvent-treated group that was not treated with the compound as a control group, the enzyme activity inhibition degree according to the treatment concentration of each compound was calculated based on the enzyme activity fluorescence degree, and the concentration of each compound that inhibited 50%, IC50 (nM), was determined using Prism Software (version 5.01, GraphPad).

human GST-HPK1 (1-346) = molecular target: T2, human GST-HPK1 (1-346) (Homo sapiens, UniProt Q92918); experiment: HPK1 enzyme inhibitory ability (ADP-Glo kinase assay); type: biochemical; conditions: human GST-HPK1 3 ng, ATP 3 uM, 25° C. 2 hours
T2 construct: purified human GST-HPK1 (1-346, Signalchem) enzyme; purchased Signalchem
T2 sequence (Q92918 1-346): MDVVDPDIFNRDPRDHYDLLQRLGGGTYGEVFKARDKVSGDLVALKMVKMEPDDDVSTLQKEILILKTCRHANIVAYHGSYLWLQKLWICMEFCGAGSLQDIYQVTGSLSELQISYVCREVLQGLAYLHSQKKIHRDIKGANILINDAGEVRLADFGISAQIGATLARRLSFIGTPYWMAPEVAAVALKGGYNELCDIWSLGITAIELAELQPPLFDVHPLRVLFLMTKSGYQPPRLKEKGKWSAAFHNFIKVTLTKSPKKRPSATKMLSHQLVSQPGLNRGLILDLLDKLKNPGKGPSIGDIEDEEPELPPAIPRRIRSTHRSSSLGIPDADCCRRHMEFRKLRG
Description: In order to evaluate the inhibitory activities of the example compounds according to the present invention on the HPK1 (hematopoietic progenitor kinase 1) enzyme, the following experiment was performed. The example compounds were reacted with the purified human GST-HPK1 (1-346, Signalchem) enzyme to evaluate the enzyme inhibitory ability by the following method. As the reaction buffer, a composition of 40 mM Tris-HCl pH 7.4, 20 mM MgCl2, 0.5 mg/mL BSA and 50 uM DTT was used, and reactions of all test matters were performed on the reaction buffer. Upon the test, the human GST-HPK1 (3 ng) enzyme, the purified ATP (3 uM) and a specific substrate solution were reacted at 25° C. for 2 hours, and then the enzyme activity was identified using an in vitro ADP-Glo™ kinase assay (promega). The enzyme activity reaction solution, the ADP-Glo reaction solution and the enzyme ability detection solution were reacted in a ratio of 2:2:1 to measure luminescence. The enzyme activity inhibition degree according to the treatment concentrations of the respective compounds was calculated based on the fluorescence of the enzyme activity of the solvent control group that was not treated with the compound, where the concentration of each compound that inhibited enzyme activity inhibition by 50% was determined as an IC50 (nM) value.

MCF-7 cells = experiment: Breast cancer cell line proliferation inhibitory activity (CellTiter-Glo 2.0); type: cell-based; conditions: Homo sapiens, MCF7, 120 hours
Description: In order to evaluate the breast cancer cell line cell proliferation inhibitory activities of Examples according to the present invention, the following experiment was performed. Breast cancer cells of MCF-7 (Korean Cell Line Bank) were planted in a clear bottom white 96-well plate (Corning) so as to be 3×10^3/150 μl/well, and a culture solution comprising the compound continuously diluted in multiples of 3 at 12 concentrations (0.00001-2 mM) and a DMSO control group was added by 0.5 μl/well and treated so that the final concentration was 0.00005-10 μM, and then cultured in a 37° C. CO2 incubator for 120 hours. After 120 hours, the plate treated with the compound is taken out, and CellTiter-Glo® 2.0 Assay (Promega) solution is treated at 150 μl/well and then they mix well. They mix well at room temperature for 10 minutes or so, and the fluorescence is measured with a microplate reader. The data were expressed as a percentage in proportion to the vehicle standard treated cells, the GI50 (nM) values were calculated using GraphPad Prism 8.3.0 (GraphPad software Inc., San Diego), and the results were shown in Table 3 below.

Row | SMILES | IC50 (human FLT3-ITD enzyme) [nM] | IC50 (human GST-HPK1 (1-346)) [nM] | GI50 (MCF-7 cells) [nM]
1 | CN(C)[C@@H]1CCN(c2cccc(Nc3nc(N4N=CCC4c4ccccc4)c4sccc4n3)c2)C1 (stereo partly drawn) [Example 17, N-(3-((R)-3-(dimethylamino)pyrrolidin-1-yl)phenyl)-4-(5-phenyl-4,5-dihydro-1H-pyrazol-1-yl)thieno[3,2-d]pyrimidin-2-amine] | > 500 | > 500 | > 500
2 | CC1(C)OC(=O)c2ccc(Nc3nc(N4OCC[C@H]4c4ccccc4)c4cc[nH]c4n3)cc21 [Example 115, (S)-3,3-dimethyl-5-((4-(3-phenylisoxazolidin-2-yl)-7H-pyrrolo[2,3-d]pyrimidin-2-yl)amino)isobenzofuran-1(3H)-one] | > 500 | > 500 | > 500
3 | CN(C)[C@@H]1CCN(c2cccc(Nc3nc(N4OCC[C@H]4c4ccccc4)c4cc[nH]c4n3)c2)C1 [Example 100, N-(3-((R)-3-(dimethylamino)pyrrolidin-1-yl)phenyl)-4-((S)-3-phenylisoxazolidin-2-yl)-7H-pyrrolo[2,3-d]pyrimidin-2-amine] | > 500 | > 500 | > 500
4 | COc1cc(Nc2nc(N3OCC[C@@H]3c3ccccc3)c3sccc3n2)ccc1N1CCC(N2CCN(C)CC2)CC1 [Example 58, (R)-N-(3-methoxy-4-(4-(4-methylpiperazin-1-yl)piperidin-1-yl)phenyl)-4-(3-phenylisoxazolidin-2-yl)thieno[3,2-d]pyrimidin-2-amine] | > 500 | > 500 | > 500
5 | CN1CCN(c2ccc(Nc3nc(N4OCC[C@@H]4c4ccccc4)c4sccc4n3)cc2)CC1 [Example 60, (R)-N-(4-(4-methylpiperazin-1-yl)phenyl)-4-(3-phenylisoxazolidin-2-yl)thieno[3,2-d]pyrimidin-2-amine] | > 500 | > 500 | > 500
6 | OCCN1CCN(c2ccc(Nc3nc(N4OCC[C@H]4c4ccccc4)c4cc[nH]c4n3)cc2)CC1 [Example 81, (S)-2-(4-(4-((4-(3-phenylisoxazolidin-2-yl)-7H-pyrrolo[2,3-d]pyrimidin-2-yl)amino)phenyl)piperazin-1-yl)ethan-1-ol] | 250 to 500 | ≥ 250 | > 500
7 | CN1C[C@@H]2C[C@H]1CN2c1cc(Nc2nc(N3OCC[C@H]3c3ccccc3)c3cc[nH]c3n2)cc(S(C)(=O)=O)c1 [Example 91, N-(3-((1S,4S)-5-methyl-2,5-diazabicyclo[2.2.1]heptan-2-yl)-5-(methylsulfonyl)phenyl)-4-((S)-3-phenylisoxazolidin-2-yl)-7H-pyrrolo[2,3-d]pyrimidin-2-amine] | > 500 | ≥ 250 | > 500
8 | COc1cc(Nc2nc(N3OCC[C@@H]3c3ccccc3)c3sccc3n2)cc(C(=O)N2CCN(CCO)CC2)c1 [Example 67, (R)-(4-(2-hydroxyethyl)piperazin-1-yl)(3-methoxy-5-((4-(3-phenylisoxazolidin-2-yl)thieno[3,2-d]pyrimidin-2-yl)amino)phenyl)methanone] | > 500 | > 500 | > 500
9 | CN(C)[C@H]1CCN(c2cccc(Nc3nc(N4N=CCC4c4ccccc4)c4sccc4n3)c2)C1 (stereo partly drawn) [Example 18, N-(3-((S)-3-(dimethylamino)pyrrolidin-1-yl)phenyl)-4-(5-phenyl-4,5-dihydro-1H-pyrazol-1-yl)thieno[3,2-d]pyrimidin-2-amine] | > 500 | > 500 | > 500
10 | CCN1CCN(C2CCN(c3ccc(Nc4nc(N5OCC[C@H]5c5ccccc5)c5cc[nH]c5n4)cc3)CC2)CC1 [Example 85, (S)-N-(4-(4-(4-ethylpiperazin-1-yl)piperidin-1-yl)phenyl)-4-(3-phenylisoxazolidin-2-yl)-7H-pyrrolo[2,3-d]pyrimidin-2-amine] | > 500 | ≥ 250 | > 500
11 | COc1cc(Nc2nc(N3OCC[C@H]3c3ccccc3)c3cc[nH]c3n2)cc(C(=O)N2CCN(CCO)CC2)c1 [Example 94, (S)-(4-(2-hydroxyethyl)piperazin-1-yl)(3-methoxy-5-((4-(3-phenylisoxazolidin-2-yl)-7H-pyrrolo[2,3-d]pyrimidin-2-yl)amino)phenyl)methanone] | > 500 | > 500 | –
12 | OCCN1CC[C@@H](Oc2cc(Nc3nc(N4OCC[C@H]4c4ccccc4)c4cc[nH]c4n3)cc(C3CC3)c2)C1 [Example 93, 2-((R)-3-(3-cyclopropyl-5-((4-((S)-3-phenylisoxazolidin-2-yl)-7H-pyrrolo[2,3-d]pyrimidin-2-yl)amino)phenoxy)pyrrolidin-1-yl)ethan-1-ol] | > 500 | > 500 | > 500
13 | COc1cc2c(cc1Nc1nc(N3OCC[C@H]3c3ccccc3)c3cc[nH]c3n1)CN(C)CC2 [Example 106, (S)-6-methoxy-2-methyl-N-(4-(3-phenylisoxazolidin-2-yl)-7H-pyrrolo[2,3-d]pyrimidin-2-yl)-1,2,3,4-tetrahydroisoquinolin-7-amine] | – | > 500 | –
14 | Cc1cc(Nc2nc(N3OCC[C@H]3c3ccccc3)c3cc[nH]c3n2)cc(C)c1OCCCN1CCN(C)CC1 [Example 102, (S)-N-(3,5-dimethyl-4-(3-(4-methylpiperazin-1-yl)propoxy)phenyl)-4-(3-phenylisoxazolidin-2-yl)-7H-pyrrolo[2,3-d]pyrimidin-2-amine] | – | ≥ 250 | –
15 | COc1cc(N2CCN(C)CC2)ccc1Nc1nc(N2OCC[C@H]2c2ccccc2)c2cc[nH]c2n1 [Example 80, (S)-N-(2-methoxy-4-(4-methylpiperazin-1-yl)phenyl)-4-(3-phenylisoxazolidin-2-yl)-7H-pyrrolo[2,3-d]pyrimidin-2-amine] | – | > 500 | –
